# Laboratory results: US3953474A
# Legend:
# [1] = tested on: E. tenella; experiment: Efficacy against E. tenella in broiler cockerels (Table I); type: in vivo, Eimeria tenella; conditions: for Percent Mortality: due to coccidiosis; for Percent Weight Gain: normal controls = 100; for Average Cecal Lesion Score: scale 0-4
# Method: (§1) The anticoccidial effects of the A204I derivatives are illustrated by the effects of various of the compounds in controlling single-species infections of Eimeria tenella, Eimeria necatrix, Eimeria mivati, and Eimeria brunetti and a multiple-species infection of Eimeria maxima and Eimeria tenella in chickens.
# (§2) For these studies, groups of five 7-day-old chicks were fed a mash diet containing therein a uniformly dispersed A204I derivative. After having been on this ration for 48 hours, each bird was inoculated with sporulated oocysts of the particular species of Eimeria being tested.
# (§3) Some of these groups were also inoculated with Eimeria after 48 hours and served as infected controls. Other of these groups were not inoculated with Eimeria and served as normal controls. The results of treatment were evaluated 7 days after inoculation. The birds were weighed, sacrificed and examined for evidence of coccidial lesions. Coccidial involvement was expressed on an arbitrary scale, increasing from zero (no evidence of coccidiosis) to four (maximum involvement for the Eimeria sp. tested). The percent reduction in lesion score is calculated by subtracting the average lesion score of the treated group from the average lesion score of the infected control group, dividing this difference by the average lesion score of the infected control group, and multiplying the quotient by 100.
# (§4) The percent weight gain is calculated using the weight gain of normal controls as 100 percent.
# [2] = tested on: E. necatrix; experiment: Efficacy against E. necatrix in broiler cockerels (Table II); type: in vivo, Eimeria necatrix; conditions: for Percent Mortality: due to coccidiosis; for Percent Weight Gain: normal controls = 100; for Average Intestinal Lesion Score: scale 0-4; for Percent Reduction Lesion Score: vs infected controls
# Method: as §1, §2, §3, §4
# [3] = tested on: E. mivati; experiment: Efficacy against E. mivati in broiler cockerels (Table III); type: in vivo, Eimeria mivati; conditions: for Percent Mortality: due to coccidiosis; for Percent Weight Gain: normal controls = 100; for Average Intestinal Lesion Score: scale 0-4; for Percent Reduction Lesion Score: vs infected controls
# Method: as §1, §2, §3, §4
# [4] = tested on: E. brunetti; experiment: Efficacy against E. brunetti in broiler cockerels (Table IV); type: in vivo, Eimeria brunetti; conditions: for Percent Mortality: due to coccidiosis; for Percent Weight Gain: normal controls = 100; for Average Lesion Score: scale 0-4; for Percent Reduction Lesion Score: vs infected controls
# Method: as §1, §2, §3, §4
# [5] = tested on: E. maxima and E. tenella; experiment: Efficacy against a mixed infection of E. maxima and E. tenella in broiler cockerels (Table V); type: in vivo, Eimeria maxima and Eimeria tenella; conditions: for Percent Mortality: due to coccidiosis; for Percent Weight Gain: normal controls = 100; for Cecal Lesions, Average Lesion Score / Intestinal Lesions, Average Lesion Score: scale 0-4; for Intestinal Lesions, Percent Reduction Lesion Score / Cecal Lesions, Percent Reduction Lesion Score: vs infected controls
# Method: as §1, §2, §3, §4
# [6] = Acute oral toxicity in mice; conditions: mouse, in vivo
# Excerpt: The acute toxicities in mice of various of the A204I derivatives, also administered orally and expressed as LD50, are as follows: […]
# [7] = Rat feeding studies (Table VII); type: in vivo, rats; conditions: 14 days, mean
# Method: For this test, five rats of each sex were studied for 14 days at each treatment level. The mean changes in body weight and the mean amounts of food ingested were calculated for each group.
# [8] = pKa' determination; conditions: 66% aqueous dimethylformamide
# [9] = second experiment, .0025 percent in diet
# [10] = second experiment, .0025 percent in diet, vs infected control
# [11] = first experiment, .00165 percent in diet
# [12] = first experiment, .0066 percent in diet
# [13] = second experiment, .005 percent in diet
smiles,measurement,setting,value
COCCOC1(C(C)C(=O)O)OC(CC2CC(OC)C(C)C3(O2)OC(C)(C2CCC(C4CCC(C5OC(C)(O)C(C)C(OC)C5C)O4)O2)C(OC)C3C)C(C)(OC)C(OC2CCC(OC)C(C)O2)C1C (stereo not shown) [A204I 2-methoxyethyl ether derivative],Percent Mortality,[1]; [9],0%
same,Percent Weight Gain,[1]; [9],90%
same,Average Cecal Lesion Score,[1]; [9],2.9
same,Percent Reduction Lesion Score,[1]; [10],< 40%
"CCCOC1(C(C)C(=O)O)OC(CC2CC(OC)C(C)C3(O2)OC(C)(C2CCC(C4CCC(C5OC(C)(O)C(C)C(OC)C5C)O4)O2)C(OC)C3C)C(C)(OC)C(OC2CCC(OC)C(C)O2)C1C (stereo not shown) [A204I n-propyl ether, A204I n-propyl ether derivative]",Percent Mortality,[1]; [11],35%
same,Percent Weight Gain,[1]; [11],79%
same,Average Cecal Lesion Score,[1]; [11],4.0
same,Percent Reduction Lesion Score,"[1]; first experiment, .00165 percent in diet, vs infected controls",0%
same,Percent Mortality,[1]; [12],20%
same,Percent Weight Gain,[1]; [12],79%
same,Average Cecal Lesion Score,[1]; [12],3.7
same,Percent Reduction Lesion Score,"[1]; first experiment, .0066 percent in diet, vs infected controls",0%
same,Percent Mortality,[1]; [9],0%
same,Percent Weight Gain,[1]; [9],87%
same,Average Cecal Lesion Score,[1]; [9],1.8
same,Percent Reduction Lesion Score,[1]; [10],50%
same,Percent Mortality,[1]; [13],0%
same,Percent Weight Gain,[1]; [13],96%
same,Average Cecal Lesion Score,[1]; [13],0
same,Percent Reduction Lesion Score,"[1]; second experiment, .005 percent in diet, vs infected control",100%
same,Percent Mortality,[2]; .0025 percent in diet,0%
same,Percent Weight Gain,[2]; .0025 percent in diet,63%
same,Average Intestinal Lesion Score,[2]; .0025 percent in diet,1.6
same,Percent Reduction Lesion Score,[2]; .0025 percent in diet,59%
same,Percent Mortality,[2]; .005 percent in diet,6.7%
same,Percent Weight Gain,[2]; .005 percent in diet,92%
same,Average Intestinal Lesion Score,[2]; .005 percent in diet,0.2
same,Percent Reduction Lesion Score,[2]; .005 percent in diet,95%
same,Percent Mortality,[2]; .01 percent in diet,0%
same,Percent Weight Gain,[2]; .01 percent in diet,89%
same,Average Intestinal Lesion Score,[2]; .01 percent in diet,0
same,Percent Reduction Lesion Score,[2]; .01 percent in diet,100%
same,Percent Mortality,[3]; .0025 percent in diet,0%
same,Percent Weight Gain,[3]; .0025 percent in diet,94%
same,Average Intestinal Lesion Score,[3]; .0025 percent in diet,0.27
same,Percent Reduction Lesion Score,[3]; .0025 percent in diet,85%
same,Percent Mortality,[3]; .005 percent in diet,0%
same,Percent Weight Gain,[3]; .005 percent in diet,97%
same,Average Intestinal Lesion Score,[3]; .005 percent in diet,0
same,Percent Reduction Lesion Score,[3]; .005 percent in diet,100%
same,Percent Mortality,[3]; .01 percent in diet,0%
same,Percent Weight Gain,[3]; .01 percent in diet,98%
same,Average Intestinal Lesion Score,[3]; .01 percent in diet,0
same,Percent Reduction Lesion Score,[3]; .01 percent in diet,100%
same,Percent Mortality,[4]; .0025 percent in diet,0%
same,Percent Weight Gain,[4]; .0025 percent in diet,95%
same,Average Lesion Score,[4]; .0025 percent in diet,0.80
same,Percent Mortality,[4]; .005 percent in diet,0%
same,Percent Weight Gain,[4]; .005 percent in diet,89%
same,Average Lesion Score,[4]; .005 percent in diet,0
same,Percent Reduction Lesion Score,[4]; .005 percent in diet,100%
same,Percent Mortality,[4]; .01 percent in diet,0%
same,Percent Weight Gain,[4]; .01 percent in diet,89%
same,Average Lesion Score,[4]; .01 percent in diet,0
same,Percent Reduction Lesion Score,[4]; .01 percent in diet,100%
same,Percent Mortality,[5]; .0025 percent in diet,0%
same,Percent Weight Gain,[5]; .0025 percent in diet,94%
same,"Cecal Lesions, Average Lesion Score",[5]; .0025 percent in diet,2.67
same,"Intestinal Lesions, Average Lesion Score",[5]; .0025 percent in diet,0.13
same,"Intestinal Lesions, Percent Reduction Lesion Score",[5]; .0025 percent in diet,84%
same,Percent Mortality,[5]; .005 percent in diet,0%
same,Percent Weight Gain,[5]; .005 percent in diet,99%
same,"Cecal Lesions, Average Lesion Score",[5]; .005 percent in diet,0.07
same,"Intestinal Lesions, Average Lesion Score",[5]; .005 percent in diet,0.07
same,"Cecal Lesions, Percent Reduction Lesion Score",[5]; .005 percent in diet,98%
same,"Intestinal Lesions, Percent Reduction Lesion Score",[5]; .005 percent in diet,91%
same,Percent Mortality,[5]; .01 percent in diet,0%
same,Percent Weight Gain,[5]; .01 percent in diet,98%
same,"Cecal Lesions, Average Lesion Score",[5]; .01 percent in diet,0
same,"Intestinal Lesions, Average Lesion Score",[5]; .01 percent in diet,0
same,"Cecal Lesions, Percent Reduction Lesion Score",[5]; .01 percent in diet,100%
same,"Intestinal Lesions, Percent Reduction Lesion Score",[5]; .01 percent in diet,100%
same,LD50,[6],38 ± 6 mg/kg
same,Body Weight Change,"[7]; female, 5 ppm",+34.0 g
same,Food ingested,"[7]; female, 5 ppm",224 g
same,Body Weight Change,"[7]; female, 10 ppm",+36.0 g
same,Food ingested,"[7]; female, 10 ppm",218 g
same,Body Weight Change,"[7]; female, 20 ppm",+31.6 g
same,Food ingested,"[7]; female, 20 ppm",229 g
same,Body Weight Change,"[7]; male, 5 ppm",+77.8 g
same,Food ingested,"[7]; male, 5 ppm",281 g
same,Body Weight Change,"[7]; male, 10 ppm",+45.2 g
same,Food ingested,"[7]; male, 10 ppm",221 g
same,Body Weight Change,"[7]; male, 20 ppm",+66.6 g
same,Food ingested,"[7]; male, 20 ppm",288 g
same,pKa,[8],7.8
"COC1CCC(OC2C(C)C(OC(C)C)(C(C)C(=O)O)OC(CC3CC(OC)C(C)C4(O3)OC(C)(C3CCC(C5CCC(C6OC(C)(O)C(C)C(OC)C6C)O5)O3)C(OC)C4C)C2(C)OC)OC1C (stereo not shown) [A204I isopropyl ether, A204I isopropyl ether derivative]",Percent Mortality,[1]; [9],0%
same,Percent Weight Gain,[1]; [9],95%
same,Average Cecal Lesion Score,[1]; [9],2.3
same,Percent Reduction Lesion Score,[1]; [10],< 40%
same,LD50,[6],20 to 36 mg/kg
